Results taken from ChEMBL document CHEMBL4680169, “Synthesis and bioevaluation of new vascular-targeting and anti-angiogenic thieno[2,3-d]pyrimidin-4(3H)-ones” (Eur J Med Chem, 2020).
Values belong to the compound of their own block, whether it stands above or below them. Active and inactive are the calls of the source. No cut-off for these calls is given here.

What was measured:
518A2 = test: cells; format: functional, cell-based; conditions: Homo sapiens, 518A2, 72 h
Description: Cytotoxicity against human 518A2 cells assessed as inhibition of cell growth after 72 hrs by MTT assay

HCT-116 [1] = test: cells; format: functional, cell-based; conditions: Homo sapiens, HCT-116, 72 h
Description: Cytotoxicity against human HCT-116 p53 mutant cells assessed as inhibition of cell growth after 72 hrs by MTT assay

EA.hy 926 [2] = test: cells; format: functional, cell-based; conditions: Homo sapiens, EA.hy 926, 72 h
Description: Cytotoxicity against human EA.hy 926 cells assessed as inhibition of cell growth after 72 hrs by MTT assay

HCT-116 [3] = test: cells; format: functional, cell-based; conditions: Homo sapiens, HCT-116, 72 h; remark: listed apart in the source
Description: Cytotoxicity against wild type human HCT-116 cells assessed as inhibition of cell growth after 72 hrs by MTT assay

KB-V1 = test: cells; format: functional, cell-based; conditions: Homo sapiens, KB-V1, 72 h
Description: Cytotoxicity against multidrug resistant human KB-V1 cells assessed as inhibition of cell growth after 72 hrs by MTT assay

Sus scrofa = organism: Sus scrofa; test: Inhibition of porcine brain tubulin polymerization at 10 uM measured at 20 sec interval for 2 hrs by turbidometric method
Chorioallantoic membrane = test: Vascular disruptive effect in chicken fertilized egg chorioallantoic membrane at 5 nmol incubated for 24 hrs by CAM assay; format: functional, tissue-based; conditions: Gallus gallus
Tubulin (Homo sapiens) = Tubulin (Homo sapiens) (UniProt P68371+Q9H4B7+P0DPH7+P68366+Q13509+Q71U36+P04350+Q3ZCM7+P07437+P68363+Q9BQE3+Q6PEY2+Q13885+Q9BVA1+Q9BUF5); test: Induction of microtubule cytoskeleton disruption in human EA.hy926 cells at 25 nM measured after 24 hrs by DAPI staining based fluorescence microscopic analysis; format: cell-based; conditions: EA.hy 926
EA.hy 926 [4] = test: Induction of F-actin cytoskeleton disruption in human EA.hy926 cells at 50 nM assessed as formation of actin stress fibers measured after 3 hrs by DAPI staining based fluorescence microscopic analysis; format: cell-based
cells = format: ADME, cell-based; conditions: Homo sapiens, HDFa, 72 h
Description: Cytotoxicity against human HDfa cells assessed as inhibition of cell growth after 72 hrs by MTT assay

EA.hy 926 [5] = test: Cell cycle arrest in human EA.hy926 cells assessed as accumulation at sub-G1 phase after 24 hrs by propidium iodide staining based flow cytometric analysis; format: functional

Compound: CCOC(=O)N1CCc2c(sc3nc(-c4ccc(OC)c(O)c4)[nH]c(=O)c23)C1
IC50 (518A2): 2300 nM
IC50 (HCT-116 [1]): 5600 nM
IC50 (EA.hy 926 [2]): 4500 nM
IC50 (HCT-116 [3]): 1800 nM
IC50 (KB-V1): 2200 nM

Compound: N#Cc1cccc(-c2nc3sc4c(c3c(=O)[nH]2)CCCCC4)c1
IC50 (518A2): 9400 nM
IC50 (HCT-116 [1]): 1000 nM
IC50 (EA.hy 926 [2]): 13100 nM
IC50 (HCT-116 [3]): 3800 nM
IC50 (KB-V1): 18200 nM

Compound: O=c1[nH]c(-c2cccc(Br)c2)nc2sc3c(c12)CCNC3
IC50 (518A2): 1700 nM
IC50 (HCT-116 [1]): 1400 nM
IC50 (EA.hy 926 [2]): 1600 nM
IC50 (HCT-116 [3]): 1600 nM
IC50 (KB-V1): 2200 nM

Compound: N#Cc1cccc(-c2nc3sc4c(c3c(=O)[nH]2)CCCC4)c1
IC50 (518A2): 300 nM
IC50 (HCT-116 [1]): 200 nM
IC50 (EA.hy 926 [2]): 1200 nM
IC50 (HCT-116 [3]): 700 nM
IC50 (KB-V1): 1900 nM

Compound: CCOC(=O)N1CCc2c(sc3nc(-c4cccc(C#N)c4)[nH]c(=O)c23)C1
IC50 (518A2): 4100 nM
IC50 (HCT-116 [1]): 4300 nM
IC50 (EA.hy 926 [2]): 12500 nM
IC50 (HCT-116 [3]): 4900 nM
IC50 (KB-V1): 7100 nM

Compound: CCOC(=O)N1CCc2c(sc3nc(-c4cc(Br)c(OC)c(OC)c4)[nH]c(=O)c23)C1
IC50 (518A2): 500 nM
IC50 (HCT-116 [1]): 500 nM
IC50 (EA.hy 926 [2]): 200 nM
IC50 (HCT-116 [3]): 400 nM
IC50 (KB-V1): 300 nM

Compound: COc1ccc(/C=C\c2cc(OC)c(OC)c(OC)c2)cc1O [COMBRETASTATIN A4]
Activity (Chorioallantoic membrane): Active
Activity (Tubulin (Homo sapiens)): Active
IC50 (518A2): 20 nM
IC50 (HCT-116 [1]): 2 nM
Activity (EA.hy 926 [4]): Active
IC50 (EA.hy 926 [2]): 10 nM
IC50 (cells): > 100000 nM
IC50 (HCT-116 [3]): 3 nM
Activity (EA.hy 926 [5]): Dose-dependent effect
IC50 (KB-V1): 4 nM

Continued, in another order:

IC50 (518A2): 2400 nM
IC50 (HCT-116 [1]): 700 nM
IC50 (EA.hy 926 [2]): 1000 nM
IC50 (HCT-116 [3]): 800 nM
IC50 (KB-V1): 700 nM
Compound: COc1c(Br)cc(-c2nc3sc4c(c3c(=O)[nH]2)CCCC4)cc1Br

IC50 (518A2): 200 nM
IC50 (HCT-116 [1]): 200 nM
IC50 (EA.hy 926 [2]): 200 nM
IC50 (HCT-116 [3]): 300 nM
IC50 (KB-V1): 600 nM
Compound: COc1cc(-c2nc3sc4c(c3c(=O)[nH]2)CCCCC4)cc(I)c1OC

IC50 (518A2): 700 nM
IC50 (HCT-116 [1]): 800 nM
IC50 (EA.hy 926 [2]): 200 nM
IC50 (HCT-116 [3]): 300 nM
IC50 (KB-V1): 700 nM
Compound: COc1cc(-c2nc3sc4c(c3c(=O)[nH]2)CCCCC4)cc(Cl)c1OC

IC50 (518A2): > 100000 nM
IC50 (HCT-116 [1]): > 100000 nM
IC50 (EA.hy 926 [2]): > 100000 nM
IC50 (HCT-116 [3]): > 100000 nM
IC50 (KB-V1): > 100000 nM
Compound: O=c1[nH]c(-c2cccc(Br)c2)nc2sc3c(c12)CCCCC3

IC50 (518A2): 300 nM
IC50 (HCT-116 [1]): 400 nM
IC50 (EA.hy 926 [2]): 100 nM
IC50 (HCT-116 [3]): 200 nM
IC50 (KB-V1): 600 nM
Compound: COc1cc(-c2nc3sc4c(c3c(=O)[nH]2)CCN(C(C)=O)C4)cc(I)c1OC
inhibition (Sus scrofa): Active

IC50 (518A2): 400 nM
IC50 (HCT-116 [1]): 1000 nM
IC50 (EA.hy 926 [2]): 400 nM
IC50 (HCT-116 [3]): 500 nM
IC50 (KB-V1): 300 nM
Compound: COc1cc(-c2nc3sc4c(c3c(=O)[nH]2)CCCC4)cc(Cl)c1OC

IC50 (518A2): 500 nM
IC50 (HCT-116 [1]): 500 nM
IC50 (EA.hy 926 [2]): 900 nM
IC50 (HCT-116 [3]): 400 nM
IC50 (KB-V1): 2800 nM
Compound: COc1cc(-c2nc3sc4c(c3c(=O)[nH]2)CCN(C(C)=O)C4)cc(Br)c1OC

IC50 (518A2): 16400 nM
IC50 (HCT-116 [1]): 10800 nM
IC50 (EA.hy 926 [2]): 6300 nM
IC50 (HCT-116 [3]): > 100000 nM
IC50 (KB-V1): 17000 nM
Compound: COc1cc(-c2nc3sc4c(c3c(=O)[nH]2)CCNC4)cc(Cl)c1OC

IC50 (518A2): 200 nM
IC50 (HCT-116 [1]): 300 nM
IC50 (EA.hy 926 [2]): 300 nM
IC50 (HCT-116 [3]): 800 nM
IC50 (KB-V1): 300 nM
Compound: COc1cc(-c2nc3sc4c(c3c(=O)[nH]2)CCCCC4)cc(Br)c1OC
